Results on six compounds are retold here after PMC3352935, “Enzymatic Analysis of Recombinant Japanese Encephalitis Virus NS2B(H)-NS3pro Protease with Fluorogenic Model Peptide Substrates” (PLoS ONE, 2012).

Several values for one entry are separate records, joined by “and”; a condition that tells them apart may be missing. Identical values can stand only once. Like-named read-outs stand apart in the source and are kept apart here. Square brackets hold non-standard residues; d marks the D form. Peptide text beside a SMILES is read from it. * marks the point of attachment. AMC = Cc1cc(=O)oc2cc(N*)ccc12; Nle = CCCC[C@H](N)C(=O)O; Bz = O=C(c1ccccc1)*

Test [1] addresses T1, JEV NS2B(H)-NS3pro (Japanese encephalitis virus, UniProt P32886, DEL1469-1493).
T1 construct: PCR-amplify the NS2B(H) region (amino acids 51–95 and 121–131); The N-terminal one-third (180 residues) of NS3 represents the protease domain NS3(pro); made in house; host or cells: E. coli (the text names both C41 and BL21), vector pTrcHisA
The experiment in a line: Enzymatic activity assay with fluorogenic peptide substrates (Michaelis-Menten kinetics). The test is classed as biochemical. Conditions: JEV protease.

For another test, the system named is NS2B/NS3 protease of YFV. Conditions: cited from earlier work.
For test [2], the system named is NS2B/NS3 protease of DEN2. The settings on record: cited from earlier work.
In test [3] the test system is JEV NS2B(H)-NS3pro. Conditions: 25 mM NaCl; 100 µM Pyr-RTKR-amc, 0.5 µM enzyme, 50 mM Tris-HCl pH 9.5, 37°C.
The test system of test [4] is dengue virus NS3 protease. The settings on record: 100 mM NaCl; cited from earlier work.
The subject of the next test is N2B-NS3 protease of WNV. The settings on record: cited from earlier work.
In another test the target is DEN2 NS3 protease. The settings on record: cited from earlier work.
For test [5], the target named is JEV NS2B(H)-NS3pro. Nature of the test: Enzyme inhibition by aprotinin, Pyr-RTKR-amc substrate. The test is classed as biochemical, Japanese encephalitis virus. Conditions: 0.5 µM enzyme, 50 mM Tris-HCl pH 9.5, 20% glycerol, aprotinin 0-20 µM, 37°C 30 minutes pre-incubation, 10 µM Pyr-RTKR-amc, triplicate.
In another test the test system is MVEV NS2B-NS3. Conditions: cited from earlier work.
The target of the next test is WNV NS3 protease. Conditions: cited from earlier work.

For orientation: Ki means the equilibrium dissociation constant of an inhibitor or competing ligand from its target. A word on the IC50: it is the concentration that gives 50% inhibition.

For the compound `Cc1cc(=O)oc2cc(NC(=O)[C@H](CCCNC(=N)N)NC(=O)[C@H](CCCNC(=N)N)NC(=O)CNC(=O)OC(C)(C)C)ccc12` [Boc-GRR-amc], on JEV NS2B(H)-NS3pro [1], the “fold higher K m than Boc-LRR-amc” value came out at 3 fold and the “fold higher catalytic efficiency than Boc-LRR-amc” value is “about 10 fold”. Besides, in the test with NS2B/NS3 protease of YFV, the K m is on record as 142 µM and the k cat was 0.034 s⁻¹. Moreover, in [2], the K m is reported as 150 µM and the k cat is 0.13 s⁻¹.
For the compound `CCCC[C@H](NC(=O)c1ccccc1)C(=O)N[C@@H](CCCCN)C(=O)N[C@@H](CCCNC(=N)N)C(=O)N[C@@H](CCCNC(=N)N)C(=O)Nc1ccc2c(C)cc(=O)oc2c1` [Bz-nKRR-amc] (Bz-[Nle]KRR-{AMC}), on JEV NS2B(H)-NS3pro [1], the “fold higher k cat/K m of benzoyl compared to acetyl group (Ac-nKRR-amc)” value is given as “approximately 1.4 fold”.
Turning to `[Cl-].[Na+]` [NaCl], the “inhibition of cleavage of Pyr-RTKR-amc” value with JEV NS2B(H)-NS3pro [3] is given as “about 50%”. The “inhibition of the dengue virus NS3 protease” value in test [4] is recorded as 40–50%.
Regarding Abz-(R)4SAGnY-amide, the “k cat/K m” value in [2] is 11087 M⁻¹ s⁻¹.
Take Pyr-RTKR-amc: in the test with N2B-NS3 protease of WNV, the K m was 71 µM, the k cat is 6.3 s⁻¹ and the “k cat/K m” value was 88000 M⁻¹ s⁻¹. Further, in [2], the k cat is 0.02 s⁻¹ and 0.013 s⁻¹.
For the compound aprotinin, the Ki at DEN2 NS3 protease is 26 nM; on WNV NS3 protease (WNV NS3 protease), 162 nM; on WNV NS3 protease (non-cleavable form of WNV NS2B-NS3pro) it was 26 nM. For the same compound, the IC50 against JEV NS2B(H)-NS3pro [5] was 4130 ± 170 nM; in the test on MVEV NS2B-NS3, ~8000 nM and 7800 nM.
